Each structure is given as a SMILES string.

The IC50 is the point on the concentration scale where inhibition reaches its midpoint. Read a low IC50 as higher potency.

Common to all, as to type: functional, organism-based
One test relates to Enterobacter cloacae. Nature of the test: Compound was evaluated for the inhibition of Enterobacter cloacae P99 cephalosporinase.
The subject of a further test is Staphylococcus aureus. The test is described as follows: Compound was evaluated for the inhibition of Staphylococcus aureus penicillinase (PC1).
A further test has as its system Escherichia coli. The test is described as follows: Compound was evaluated for the inhibition of Escherichia coli TEM-1 enzyme.

For the compound `C[C@]12C[C@@]1(C(=O)O)N1C(=O)C[C@H]1S2(=O)=O`, the IC50 in the test with Enterobacter cloacae is 322 µM; in the test on Staphylococcus aureus, 14 µM; in the test on Escherichia coli it was 2.5 µM.

On to `C[C@@]12C[C@]1(C(=O)O)N1C(=O)C[C@H]1S2(=O)=O`, for which the IC50 in the test on Enterobacter cloacae is 12 µM; in the test with Staphylococcus aureus, 548 µM; in the test on Escherichia coli it was 406 µM.

For the compound `CC1(C)[C@H](C(=O)O)N2C(=O)C[C@H]2S1(=O)=O` [SULBACTAM], the IC50 in the test with Enterobacter cloacae was 20 µM; with Staphylococcus aureus, 6.8 µM; in the test on Escherichia coli, 1.9 µM.
